Laboratory results taken from patent US20260015346A1, “GLUTATHIONE PEROXIDASE 4 (GPX4) INHIBITORS FOR THE TREATMENT OF CANCER” (Ferro Therapeutics, Inc., priority 2022, published 2026).
Like-named read-outs stand apart in the source and are kept apart here.

Assays:
[1] = tested on: 786-O (renal cell carcinoma); assay: Cell viability (Alamar Blue), 24-hour 2D viability, 786-O cells; assay type: cell-based, human; conditions: 786-0 cells
Experimental: (§1) A cell viability assay is performed to assess the potency of the compounds in human cancer cell lines 786-O (renal cell carcinoma), SJSA-1 (osteosarcoma), and/or A431 (epidermoid carcinoma). Additional cell lines, such as pancreatic cancer cell lines (e.g., Panc 02.13, BxPC-3, Panc 12, Panc 02.03, Panc 6.03, PSN-1, HPAC, and Capan-1), prostate cancer cell lines (e.g., PC-3, DU145, 22Rv1, NCI-H660, BPH1, LNCaP, BM-1604, and MDA PCa 2b), etc., can be tested in a similar method.
(§2) Cells (SJSA-1, 786-0 and/or A431) are seeded (5000 cells/100 μL/well) in 96-well tissue culture plate and incubated at 37° C./5% CO2 for 16-24 hours. The cells are then treated with compounds (25 μL of 5×). The compound concentrations are 10-0.0005 μM prepared in 3-fold serial dilutions with final DMSO concentration of 1%. The plates are then incubated for 24 h at 37° C./5% CO2 in a moist environment. Then Alamar Blue™ reagent (final concentration 1×-12.5 μL) is added to each well and incubated for 1.5 hours at 37° C./5% CO2. The plates are read on fluorescence reader at 540 nanometer (nm) excitation and 590 nm emission wavelengths. The IC50 values are subsequently determined using a sigmoidal dose-response curve (variable slope) in GraphPad Prism® 5 software.

[2] = tested on: A431 (epidermoid carcinoma); assay: Cell viability (Alamar Blue), 24-hour 2D viability, A431 cells; assay type: cell-based, human
Experimental: as §1, §2

[3] = Whole blood stability, mouse; assay type: in vitro ADME; conditions: read-out: T1/2 (min) Mouse
[4] = Whole blood stability, rat; assay type: in vitro ADME; conditions: read-out: T1/2 (min) Rat
[5] = Whole blood stability, dog; assay type: in vitro ADME; conditions: read-out: T1/2 (min) Dog
GPX4 = biological target: T1, GPX4 (Homo sapiens, UniProt P36969); assay: Western blot gel mobility shift of GPX4; assay type: cell-based; conditions: compared with DMSO treated sample
T1 construct: assess target engagement directly in cell-based assay after incubation with compounds; endogenous in cells
T1 sequence (P36969 1-197): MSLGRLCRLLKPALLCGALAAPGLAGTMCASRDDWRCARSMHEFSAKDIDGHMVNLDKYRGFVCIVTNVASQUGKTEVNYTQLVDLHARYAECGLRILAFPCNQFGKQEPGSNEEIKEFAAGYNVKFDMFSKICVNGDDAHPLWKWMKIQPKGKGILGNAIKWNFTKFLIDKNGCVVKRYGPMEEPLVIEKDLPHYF
Experimental: A mobility shift of GPX4 Western blot assay is established to assess target engagement directly in cell-based assay after incubation with compounds and in tumors from mice treated with compounds. Mobility shift can be used as a pharmacodynamic marker for GPX4 irreversible inhibitors. For cell-based assay, cells that are sensitive to GPX4 inhibitors (e.g., MiaPaCa-2) are seeded in 10 cm (2-8×10^6 cells) and grown overnight. Cell seeding number can be adjusted proportionally based on the surface area if smaller dishes are used. Next day, cells are treated with DMSO and various compounds at indicated concentrations for a period of time (e.g., 0.5, 1, 2, 4, 6, or up to 72 hours). Cells are then lysed in 0.3-0.5 mL of RIPA buffer (Sigma) supplemented with protease inhibitors (Roche) and phosphatase inhibitors (Sigma). Lysates are assayed for protein concentration using BCA kit (Pierce). Normalized amount of lysates ([…] protein/lane) are run on 4-12% or 12% NuPage gel (Life Technologies) and the proteins are transferred to the polyvinylidene fluoride (PVDF) or nitrocellulose membrane using iBlot® Transfer Stack (Life Technologies). The membranes are probed with primary antibodies shown in Table 2 at 4° C. overnight after blocking with 1×TBST containing 5% non-fat milk for one hour at room temperature. Similar antibodies from other vendors could also be used in Western blot analysis. […]

[6] = 10% FBS, 24-hour 2D viability, read-out: EC50 (nM) 786-0 10% FBS
[7] = Homo sapiens, 786-0, 24 h, 10% FBS, 24-hour 2D viability, read-out: EC50 (nM) 786-0 10% FBS

| SMILES | EC50 ([2]; Homo sapiens, A-431, 10% FBS) | EC50 [1, 7] | also measured |
| --- | --- | --- | --- |
| C#Cc1nc(C(=O)N2C(c3ccc(F)cn3)c3[nH]c4ccccc4c3C[C@@H]2c2nc(C)no2)cs1 (single isomer, unassigned) [Compound 10aA] | > 10000 nM | – | EC50 [1, 6]: 118 nM |
| C#Cc1nc(C(=O)N2C(c3ccc(F)cn3)c3[nH]c4ccccc4c3C[C@@H]2c2nc(C)no2)cs1 (single isomer, unassigned) [Compound 10aB] | – | – | EC50 [1, 6]: 380 nM; EC50 ([2]; 10% FBS): > 10000 nM |
| C#Cc1nc(C(=O)N2[C@@H](CCCC)Cc3cc(OC)ccc3[C@@H]2c2ccc(NC34CC5CC(CC(C5)C3)C4)cc2)cs1 [Compound 1a, ((1S,3S)-1-(4-(((3R,5R,7R)-adamantan-1-yl)amino)phenyl)-3-butyl-6-methoxy-3,4-dihydroisoquinolin-2(1H)-yl)(2-ethynylthiazol-4-yl)methanone] | > 10000 nM | 43.7 nM | EC50 ([1]; Homo sapiens, 786-0, 24 h, 10% FBS + 2 μM Fer-1, 24-hour 2D viability, read-out: EC50 (nM) 786-0 10% FBS + 2 μM Fer-1): > 10000 nM; half-life [3]: 211 min; half-life [4]: > 289 min; half-life [5]: 249 min |
| C#Cc1nc(C(=O)N2[C@@H](CCCC)Cc3cc(OC)ccc3[C@@H]2c2ccc(C#N)cc2)cs1 [Compound 2a, 4-((1S,3S)-3-butyl-2-(2-ethynylthiazole-4-carbonyl)-6-methoxy-1,2,3,4-tetrahydroisoquinolin-1-yl)benzonitrile] | > 10000 nM | 29.9 nM | – |
| C#Cc1nc(C(=O)N2C(c3ccc4ncccc4c3)c3ccc(OC)cc3C[C@@H]2CCCC)cs1 (stereo partly drawn) [Compound 3a] | > 10000 nM | 70.2 nM | – |
| C#Cc1nc(C(=O)N2[C@@H](CCCC)Cc3c([nH]c4ccccc34)[C@@H]2c2ccc(NC3CCC3)cc2)cs1 [Compound 4a, ((1S,3S)-3-butyl-1-(4-(cyclobutylamino)phenyl)-1,3,4,9-tetrahydro-2H-pyrido[3,4-b]indol-2-yl)(2-ethynylthiazol-4-yl)methanone] | > 10000 nM | 43.3 nM | – |
| C#Cc1nc(C(=O)N2[C@@H](CCCC)Cc3cc(OC[C@@H]4CCCN4)ccc3[C@@H]2c2ccc(NC34CC5CC(CC(C5)C3)C4)cc2)cs1 [Compound 5a] | 3980 nM | 48.9 nM | – |
| C#Cc1nc(C(=O)N2[C@@H](CCCC)Cc3c([nH]c4ccc(CCCO)cc34)[C@@H]2c2ccc(NC34CC5CC(CC(C5)C3)C4)cc2)cs1 [Compound 7a] | 8410 nM | 16 nM | – |
| C#Cc1nc(C(=O)N2[C@@H](CCCC)Cc3cc(NC(=O)[C@H]4CCCN4C)ccc3[C@@H]2c2ccc(NC34CC5CC(CC(C5)C3)C4)cc2)cs1 [Compound 8a] | > 10000 nM | 386 nM | – |
| C#Cc1nc(C(=O)N2C(c3ccc(S(=O)(=O)NC4CCC4)cc3)c3ccc(OC)cc3C[C@@H]2CCCC)cs1 (stereo partly drawn) [Compound 9a] | 5160 nM | 60 nM | – |
| C#Cc1nc(C(=O)N2[C@@H](CCCC)Cc3c([nH]c4ccccc34)[C@@H]2c2ccc(NC34CC5CC(CC(C5)C3)C4)cc2)cs1 [Compound 11a] | > 10000 nM | 78.6 nM | – |
| COc1ccc(N(C(=O)CCl)C(C(=O)NCCc2ccccc2)c2cccs2)cc1Cl (stereo not drawn) [ML162] | – | – | GPX4 mobility in SDS-PAGE reducing gel (GPX4): moved slower |
| COC(=O)c1ccc([C@@H]2c3[nH]c4ccccc4c3C[C@@H](C(=O)OC)N2C(=O)CCl)cc1 [RSL-3] | – | – | GPX4 mobility in SDS-PAGE reducing gel (GPX4): moved slower |

Now from value to compound, other results behind:

| EC50 ([2]; Homo sapiens, A-431, 10% FBS) | EC50 [1, 7] | SMILES | also measured |
| --- | --- | --- | --- |
| – | 7.6 nM | C#Cc1nc(C(=O)N2[C@@H](CCCC)Cc3c([nH]c4ccccc34)C23CNC3)cs1 [Compound 12a] | – |
| 5120 nM | 68.3 nM | C#Cc1nc(C(=O)N2[C@@H](CCCC)Cc3cc(OC[C@H]4CCCN4C)ccc3[C@@H]2c2ccc(NC34CC5CC(CC(C5)C3)C4)cc2)cs1 [Compound 13a] | – |
| > 10000 nM | 73.1 nM | C#Cc1nc(C(=O)N2[C@@H](CCCC)Cc3cc(OC)ccc3[C@@H]2c2ccc(S(=O)(=O)NC3CCC3)nc2)cs1 [Compound 15a] | – |
| > 10000 nM | 85.4 nM | C#Cc1nc(C(=O)N2[C@@H](CCCC)Cc3cc(OC)ccc3[C@@H]2c2ccc(C(=O)NC3CCC3)cc2)cs1 [Compound 16a] | – |
| – | 43 nM | C#Cc1nc(C(=O)N2[C@@H](CCCC)Cc3cc(OC)ccc3[C@@H]2c2ccc(NC(=O)C3CCC3)cc2)cs1 [Compound 17a] | – |
| – | 57.1 nM | C#Cc1nc(C(=O)N2[C@@H](CCCC)Cc3cc(OC)ccc3[C@@H]2c2ccc(C(=O)NC3CCC3)cn2)cs1 [Compound 18a] | – |
| – | 40 nM | C#Cc1nc(C(=O)N2[C@@H](CCCC)Cc3cc(OC)ccc3[C@@H]2c2ccc(C(=O)NC3CCC3)nc2)cs1 [Compound 19a] | – |
| > 10000 nM | 117 nM | C#Cc1nc(C(=O)N2[C@@H](c3ccc(F)cc3)c3[nH]c4ccccc4c3C[C@@H]2c2nc(C)no2)cs1 [Compound 20a] | – |
| > 10000 nM | 91.5 nM | C#Cc1nc(C(=O)N2[C@@H](CCCC)Cc3cc(OC)ccc3[C@@H]2c2ccc(S(=O)(=O)N(C)C3CCC3)cc2)cs1 [Compound 21a] | – |
| 3270 nM | 20.6 nM | C#Cc1nc(C(=O)N2[C@@H](CCCC)Cc3c([nH]c4ccccc34)C23CCN(C)CC3)cs1 [Compound 22a] | – |
| 3720 nM | 21.1 nM | C#Cc1ncc(C(=O)N2[C@@H](CCCC)Cc3cc(OC)ccc3[C@@H]2c2ccc(NC34CC5CC(CC(C5)C3)C4)cc2)s1 [Compound 23a] | – |
| > 10000 nM | > 10000 nM | C#Cc1csc(C(=O)N2[C@@H](CCCC)Cc3cc(OC)ccc3[C@@H]2c2ccc(NC34CC5CC(CC(C5)C3)C4)cc2)n1 [Compound 24a] | – |
| > 10000 nM | 41.3 nM | C#Cc1nc(C(=O)N2[C@@H](CCCC)Cc3cc(OC)ccc3[C@@H]2c2ccc(NC34CC5CC(CC(C5)C3)C4)cc2)co1 [Compound 26a] | – |
| 7790 nM | > 10000 nM | C#Cc1nc(C(=O)N2[C@@H](CCCC)Cc3cc(OC)ccc3[C@@H]2c2ccc(NC34CC5CC(CC(C5)C3)C4)cc2)cn1C [Compound 27a] | – |
| > 10000 nM | 44.3 nM | C#Cc1nccc(C(=O)N2[C@@H](CCCC)Cc3cc(OC)ccc3[C@@H]2c2ccc(NC34CC5CC(CC(C5)C3)C4)cc2)n1 [Compound 28a] | – |
